Test results published in patent US6369069B1 (Aventis Pharma Deutschland GmbH, priority 1998, dated 2002).

System: Na^+-dependent Cl^−/HCO3^− exchanger (NCBE)
Assay: Inhibition of the Na+-dependent Cl−/HCO3− exchanger (NCBE) in human endothelial cells (pHi recovery, BCECF fluorescence, FLIPR)
Format: cell-based
Details: for Residual activity of the NCBE at 10 μM: 10 μM compound, human endothelial cells (ECV-304), related to 100% and 0% pHi recovery controls
Protocol: Inhibition of the Na^+-dependent Cl^−/HCO3^− exchanger (NCBE) in human endothelial cells
Human endothelial cells (ECV-304) were detached form culture flasks with the aid of trypsin/EDTA buffer (0.05/0.02% in phosphate buffer) and, after centrifugation (100 g, 5 min), taken up in a buffered saline solution (mmol/l: 115 NaCl, 20 NH4Cl, 5 KCl, 1 CaCl2, 1 MgSO4, 20 N-(2-hydroxyethyl)-piperazine-N[…]-2-ethanesulfonic acid (HEPES), 5 glucose and 1 g/l of bovine serum albumin; pH 7.4). This cell suspension was incubated at 37 °C. for 20 min with 5 μM BCECF acetoxymethyl ester. The cells were then washed and resuspended in a sodium- and bicarbonate-free buffer solution (mmol/l: 5 HEPES, 133.8 choline chloride, 4.7 KCl, 1.25 MgCl2, 0.97 K2HPO4, 0.23 KH2PO4, 5 glucose; pH 7.4).
For the subsequent fluorescence measurement in the FLIPR (Fluorescent Imaging Plate Reader), 100 μl of this cell suspension in each case containing 20,000 cells were added by pipette per well of a 96-well microtiter plate and this microtiter plate was centrifuged (100 g, 5 min). In the FLIPR, 100 μl of buffer solution in each case were then removed from a further prepared microtiter plate and added by pipette to each of the 96 wells of the measuring plate. In this case, for a 100% control, i.e. a recovery of the intracellular pH (pHi) by means of the NCBE, a bicarbonate- and sodium-containing buffer solution (mmol/l: 5 HEPES, 93.8 NaCl, 40 NaHCO3, 4.7 KCl, 1.25 CaCl2, 1.25 MgCl2, 0.97 Na2HPO4, 0.23 NaH2PO4, 5 glucose; pH 7.4) which contained 50 μM HOE 642 was used. For a 0% control, i.e. no pHi recovery at all, a bicarbonate-free, sodium-containing buffer solution (mmol/l: 5 HEPES, 133.8 NaCl, 4.7 KCl, 1.25 CaCl2, 1.25 MgCl2, 0.97 Na2HPO4, 0.23 NaH2PO4, 5 glucose; pH 7.4) to which 50 μM HOE 642 were also added was employed. The compounds according to the invention were added in various concentrations of the sodium- and bicarbonate-containing solution. After addition of the buffer solutions to the dye-loaded acidified cells situated in the measuring plate, the increase in the fluorescence intensity which corresponded to an increase in the pHi was determined in each well of the microtiter plate.
The kinetics were in this case recorded at 35° C. over a period of 2 minutes. The increase in the fluorescence intensities for different concentrations of the compounds according to the invention was related to the two controls and from this the inhibitory action of the substances was determined.

[1] = compound at 10 μM, sub-table with R7 substituent

| SMILES | Residual activity % of the NCBE at 10 μM (10 μM) [%] | other results |
| --- | --- | --- |
| Cc1ccc(-c2ccc(CN(Cc3ccc4ccccc4c3)C(=O)Cc3ccc(Cl)cc3)cc2)c(S(=O)(=O)NC#N)c1 [Example 531] |  | Residual activity % of the NCBE at 10 μM [1]: 75.6% |
| CS(=O)(=O)c1cc(-c2ccccc2S(=O)(=O)NC#N)ccc1CN(Cc1ccccc1)S(=O)(=O)c1cccs1 [Example 557, 4′-{[Benzyl(thiophene-2-sulfonyl)amino]methyl}-3′-methylsulfonylbiphenyl-2-sulfonylcyanamide] |  | Residual activity of the NCBE at 10 μM: 14% |
| Cc1ccc(-c2ccc(CN(Cc3ccccc3F)C(=O)Cc3ccsc3)cc2)c(S(=O)(=O)NC#N)c1 [Example 543] |  | Residual activity % of the NCBE at 10 μM [1]: 55.3% |
| Cc1ccc(CN(Cc2ccc(-c3ccccc3S(=O)(=O)NC#N)cc2)C(=O)C(c2ccccc2)c2ccccc2)cc1 [Example 115] | 84.0 |  |
| CC(C(=O)N(Cc1ccc(-c2ccccc2S(=O)(=O)NC#N)cc1)CC1CC(C(=O)N2CCCC2)=NO1)c1cccs1 (stereo not shown) [Example 397] |  | Residual activity % of the NCBE at 10 μM (compound at 10 μM, R(3) to R(7) hydrogen series): 44.0% |
| N#CNS(=O)(=O)c1ccccc1-c1ccc(CN(C(=O)CC2CCCCC2)C2CCc3ccccc32)cc1 (stereo not shown) [Example 354] | 37.2 |  |
| N#CNS(=O)(=O)c1ccccc1-c1ccc(CN(Cc2ccco2)C(=O)Cc2ccc(Cl)cc2)cc1 [Example 148] | 45.6 |  |
| COCCC(=O)N(Cc1ccc(-c2ccccc2S(=O)(=O)NC#N)cc1)Cc1cccc(-c2ccccc2)c1 [Example 327] | 17.4 |  |
| COc1ccccc1C(=O)N(Cc1ccc(-c2ccccc2S(=O)(=O)NC#N)cc1)Cc1ccccc1F [Example 336] | 58.1 |  |
| N#CNS(=O)(=O)c1ccccc1-c1ccc(CN(Cc2cccc(Cl)c2)C(=O)NC2CCCCC2)cc1 [Example 308] | 32.1 |  |
| CC(C)(C)OC(=O)C(c1ccccc1)N(Cc1ccc(-c2ccccc2S(=O)(=O)NC#N)cc1)C(=O)CCc1cccs1 (stereo not shown) [Example 287] | 51.1 |  |
| COc1cccc(CC(=O)N(CCO)Cc2ccc(-c3ccccc3S(=O)(=O)NC#N)cc2)c1 [Example 20] | 37.1 |  |
| CC(=O)N(CCOc1ccccc1)Cc1ccc(-c2ccccc2S(=O)(=O)NC#N)cc1 [Example 180] | 70.9 |  |
| N#CNS(=O)(=O)c1ccccc1-c1ccc(CN(Cc2ccccn2)C(=O)Cc2csc3ccccc23)cc1 [Example 212] | 60.2 |  |
| CN(Cc1ccc(-c2ccccc2S(=O)(=O)NC#N)cc1)C(=O)Cc1c[nH]c2ccccc12 [Example 206] | 23.8 |  |
| COc1ccc(CN(Cc2ccc(-c3ccccc3S(=O)(=O)NC#N)cc2)C(=O)Cc2ccc(Cl)cc2)c(OC)c1 [Example 154] | 36.2 |  |
| CCCC(=O)N(CCO)Cc1ccc(-c2ccccc2S(=O)(=O)NC#N)cc1 [Example 2] | 78.1 |  |
| N#CNS(=O)(=O)c1ccccc1-c1ccc(CN(Cc2ccc(Cl)cc2Cl)C(=O)CCS(=O)(=O)c2ccccc2)cc1 [Example 279] | 90.5 |  |
| N#CNS(=O)(=O)c1ccccc1-c1ccc(CN(CCc2ccc(S(N)(=O)=O)cc2)C(=O)Cc2cccs2)cc1 [Example 272] | 65.0 |  |
| N#CNS(=O)(=O)c1ccccc1-c1ccc(CN(Cc2cccc(Cl)c2Cl)C(=O)CC2CCCCC2)cc1 [Example 349] | 50.4 |  |
| Cc1ccc(-c2ccc(CN(CCc3ccccc3)C(=O)C(C)c3cccs3)cc2)c(S(=O)(=O)NC#N)c1 (stereo not shown) [Example 526] |  | Residual activity % of the NCBE at 10 μM [1]: 64.9% |
| CC(C)NC(=O)N(Cc1ccccc1)Cc1ccc(-c2ccccc2S(=O)(=O)NC#N)cc1 [Example 298] | 74.7 |  |
| N#CNS(=O)(=O)c1ccccc1-c1ccc(CN(Cc2cccc3ccccc23)C(=O)CCc2cccs2)cc1 [Example 289] | 39.2 |  |
| N#CNS(=O)(=O)c1ccccc1-c1ccc(CN(Cc2cccc3ccccc23)C(=O)Cc2ccccc2Br)cc1 [Example 277] | 36.3 |  |
| N#CNS(=O)(=O)c1ccccc1-c1ccc(CN(Cc2cccc(-c3ccccc3)c2)C(=O)CC2CCCCC2)cc1 [Example 357] | 61.9 |  |

| SMILES | Residual activity % of the NCBE at 10 μM (10 μM) [%] | other results |
| --- | --- | --- |
| C=CCOC(=O)N(Cc1ccccc1)Cc1ccc(-c2ccccc2S(=O)(=O)NC#N)cc1 [Example 43] | 41.6 |  |
| COc1ccccc1C(=O)N(Cc1ccc(-c2ccccc2S(=O)(=O)NC#N)cc1)Cc1cccc(C)c1 [Example 331] | 37.6 |  |
| N#CNS(=O)(=O)c1ccccc1-c1ccc(CN(Cc2ccc(Cl)c(Cl)c2)C(=O)CCCCc2ccccc2)cc1 [Example 262] | 45.3 |  |
| N#CNS(=O)(=O)c1ccccc1-c1ccc(CN(CCOc2ccccc2)C(=O)Cc2ccc(Cl)cc2)cc1 [Example 151] | 29.0 |  |
| COc1cc(C(=O)N(Cc2ccc(Cl)cc2)Cc2ccc(-c3ccccc3S(=O)(=O)NC#N)cc2)cc(OC)c1OC [Example 52] | 59.9 |  |
| N#CNS(=O)(=O)c1ccccc1-c1ccc(CN(Cc2cccc(Cl)c2)C(=O)CCc2cccs2)cc1 [Example 290] | 45.8 |  |
| N#CNS(=O)(=O)c1ccccc1-c1ccc(CN(Cc2ccccn2)C(=O)Cc2ccsc2)cc1 [Example 228] | 94.8 |  |
| COCCN(Cc1ccc(-c2ccccc2S(=O)(=O)NC#N)cc1)C(=O)C(=O)c1cccs1 [Example 195] | 58.3 |  |
| N#CNS(=O)(=O)c1ccccc1-c1ccc(CN(CCCc2ccccc2)C(=O)Cc2cccs2)cc1 [Example 236] | 35.1 |  |
| N#CNS(=O)(=O)c1ccccc1-c1ccc(CN(Cc2ccccc2F)C(=O)CCOc2ccccc2)cc1 [Example 346] | 36.0 |  |
| N#CNS(=O)(=O)c1ccccc1-c1ccc(CN(CCO)C(=O)C2CCCCC2)cc1 [Example 14] | 88.7 |  |
| N#CNS(=O)(=O)c1ccccc1-c1ccc(CN(CC2=Nc3ccccc3CN2)C(=O)Cc2cccs2)cc1 [Example 238] | 54.7 |  |
| N#CNS(=O)(=O)c1ccccc1-c1ccc(CN(Cc2ccc3ccccc3c2)C(=O)CCOc2ccccc2)cc1 [Example 340] | 37.2 |  |
| Cc1ccc(-c2ccc(CN(Cc3cccc4ccccc34)C(=O)C(C)c3cccs3)cc2)c(S(=O)(=O)NC#N)c1 (stereo not shown) [Example 522] |  | Residual activity % of the NCBE at 10 μM [1]: 85.6% |
| N#CNS(=O)(=O)c1ccccc1-c1ccc(CN(Cc2cccc(Cl)c2Cl)C(=O)CC2CCCC2)cc1 [Example 359] | 37.9 |  |
| N#CNS(=O)(=O)c1ccccc1-c1ccc(CN(Cc2ccc(Cl)cc2)C(=O)C2CCCCC2)cc1 [Example 16] | 56.4 |  |
| N#CNS(=O)(=O)c1ccccc1-c1ccc(CN(CC2CC2)C(=O)Cc2ccc(Cl)cc2)cc1 [Example 153] | 46.1 |  |
| COCCN(Cc1ccc(-c2ccccc2S(=O)(=O)NC#N)cc1)C(=O)Cc1ccsc1 [Example 227] | 50.6 |  |
| N#CNS(=O)(=O)c1ccccc1-c1ccc(CN(C(=O)Cc2csc3ccccc23)C2CC2)cc1 [Example 213] | 45.0 |  |
| Cc1ccccc1CN(Cc1ccc(-c2ccccc2S(=O)(=O)NC#N)cc1)C(=O)CC1CCCC1 [Example 362] | 44.1 |  |
| N#CNS(=O)(=O)c1ccccc1-c1ccc(CN(Cc2ccccc2)S(=O)(=O)c2cccs2)c(Cl)c1 [Example 556, 4′-{[Benzyl-(2-thiophen-2-sulfonyl)amino]methyl}-3′-chlorobiphenyl-2-sulfonylcyanamide] |  | Residual activity of the NCBE at 10 μM: 0% |
| N#CNS(=O)(=O)c1ccccc1-c1ccc(CN(Cc2ccccc2Cl)C(=O)C(c2ccccc2)c2ccccc2)cc1 [Example 111] | 80.5 |  |
| Cc1ccc(-c2ccc(CN(Cc3cccc(Cl)c3Cl)C(=O)Cc3ccsc3)cc2)c(S(=O)(=O)NC#N)c1 [Example 544] |  | Residual activity % of the NCBE at 10 μM [1]: 82.2% |
| N#CNS(=O)(=O)c1ccccc1-c1ccc(CN(Cc2ccc(Cl)cc2)C(=O)CCc2ccccc2)cc1 [Example 66] | 83.1 |  |
